Entries after “also recorded” stand apart in the source; their conditions may differ.
How the values were obtained:
[1] = target: T1, αS fibrils, Site 2 ([^3H]Tg-190b) (Homo sapiens, UniProt P37840); test: Single-concentration radioligand competition screen (100 nM compound) against [^3H]Tg-190b; format: binding; settings: 100 nM αS fibrils, [^3H]Tg-190b 6 nM
Protocol: Compounds 1–17 were purchased from vendors that were listed on the ZINC15 compound library. […] Total binding was measured in the absence of competitor and nonspecific binding was determined in reactions containing unlabeled Tg-190b (1 μM) or BF2846 (0.5 μM). […] Filters containing the bound ligand were mixed with 3 mL of scintillation cocktail (MicroScint-20, PerkinElmer, Inc.) and counted after 12 h of incubation on a MicroBeta System (PerkinElmer, Inc.). All data points were measured in triplicate. Screening of compounds 18–56 for the SAR study was performed in a similar fashion.
In Vitro Radioligand Binding Assays
Screening compound library. Compounds 1-17 (Fig. S8) were purchased from vendors that were listed on the ZINC15 compound library. 3 Compounds were screened for αS binding and after identifying the lead compound, 6, the core structure of compound 6 and its pyrazole or oxadiazole derivatives were used for similarity search on the Mcule, Inc. website.12 The similarity threshold was set to higher than 0.8, then compound 18-56 (Fig. S9) were chosen and ordered from the four companies mentioned above.
In order to screen the purchased compounds for αS binding, 100 nM solutions of each compound (1-56) were incubated for 1 hour at 37 °C with 100 nM αS fibrils and [3H]Tg-190b (6 nM) or [3H]BF2846 (3 nM) in 50 mM Tris-HCl, pH 7.4. Total binding was measured in the absence of competitor and nonspecific binding was determined in reactions containing unlabeled Tg-190b (1 µM) or BF2846 (0.5 µM). After incubation, bound and free radioligand were […]
scintillation cocktail (MicroScint-20, PerkinElmer; Waltham, MA, USA) and counted after 12 h of incubation on a MicroBeta System (PerkinElmer). All data points were acquired in triplicate.
Percentage of bound radioligand relative to total binding was plotted and data was analyzed by One-Way ANOVA, comparing the mean of each data set to the mean of total binding. […]
are shown in Fig. 2 in the main text, and Fig. S8 and S10.

[2] = target: T1, αS fibrils, Site 2 ([^3H]Tg-190b); test: Competition binding assay with Site 2 radioligand [^3H]Tg-190b on αS fibrils; settings: αS fibrils 100 nM, [^3H]Tg-190b 6 nM, 1 h 37 °C; 95% confidence intervals in parentheses in Table 1 (n = 3)
Protocol: (§1) Fig. S10 Screening of SAR Library Derived from Compound 6. Site 2 radioligand competition binding assays with [3H]Tg-190b. ANOVA was performed with Dunnett’s multiple comparisons test, where […]
(§2) *P<0.0332, **P<0.0021, ***P<0.0002 and ****P<0.0001.
(§3) Competition binding assay. αS fibrils (100 nM for Site 2 and 50 nM for Site 9) were mixed with Site 2 ligand [3H]Tg-190b (6 nM) or Site 9 ligand [3H]BF2846 (3 nM) and varying concentrations of unlabeled compounds 2, 6, 24, 28, 31, 39, 40, or 52. Compounds were diluted in 50 mM Tris-HCl buffer (pH 7.4) and mixed with fibrils and radioligand in a total volume of 150 µL. Total binding was measured in the absence of competitor and nonspecific binding was determined in reactions containing unlabeled Tg-190b (1 µM) or BF2846 (0.5 µM). In a duplicate set of binding […]
(§4) binding to the filter paper. Reactions were incubated at 37 °C for 1 h. After incubation, bound […]
(§5) Filters containing the bound ligand were mixed with 3 mL of scintillation cocktail (MicroScint-20, PerkinElmer) and counted after 12 h of incubation on a MicroBeta System (PerkinElmer). All data points were acquired in triplicate.
(§6) (1 picture or pasted object on this page, not shown here)
(§7) The measured cpm values were converted to % specific binding as described by the equation […]
(§8) % specific binding = !"#$"#% "# ’() *+),)#-) ./ -.0*)’"’.+1#.#,*)-"/"- !"#$"#% ∗ 100 ’.’23 !"#$"#%1#.#,*)-"/"- !"#$"#%
(§9) IC50 values were calculated by fitting the data to Equation S1 below by non-linear regression, using GraphPad Prism software:
(§10) Y = Bottom + (Top-Bottom) / (1+ 10(813.%9:;<)) (S1) where logIC50 is the log of the concentration of competitor that results in binding half-way between Bottom and Top; Top and Bottom are plateaus in the units of Y axis; they are binding observed in the absence of competitor and in the presence of a maximal concentration of competitor, respectively. Binding curves for compounds 2 and 6 are shown in Fig. 2 in the main text and for compounds 6, 24, 28, 31, 39, 40, and 52 in Figs. S11 and S12.

[3] = target: αS fibrils, Site 9 ([^3H]BF2846) (Homo sapiens, UniProt P37840); test: Competition binding assay with Site 9 radioligand [^3H]BF2846 on αS fibrils; settings: αS fibrils 50 nM, [^3H]BF2846 3 nM, 1 h 37 °C; 95% confidence intervals in parentheses (n = 3)
Protocol: as §1, §2, §3, §4, §5, §6, §7, §8, §9, §10

αS fibrils [4] = target: T2, αS fibrils (Homo sapiens, UniProt P37840)
αS fibrils [5] = target: T2, αS fibrils; test: αS fibril disaggregation (stability) fluorescence polarization experiment; format: biochemical; settings: 10 μM labeled fibrils; compound 6 at 10 and 100 μM, EGCG and NDGA at 100 μM
Protocol: (§11) Fluorescence Polarization and Photo -Crosslinking Assays
(§12) Aggregation and disaggregation fluorescence polarization experiments. Wild-type and αS with a fluorescein maleimide attached via Cys114 mutation were produced as previously described.10 Aggregations were performed at a total monomer concentration of 100 μM with 1% labeled αS in 20 mM Tris, 100 NaCl pH 7.4 in the presence of 10 and 100 μM compound 6 and with equivalent volume of DMSO as a control. At each timepoint, an aliquot of the fibrilization reaction was removed and diluted 10-fold in buffer. Fluorescence polarization (FP) was measured in a Greiner black 96 half-area well microplate (Greiner Bio-One North America Inc.; Monroe, NC, USA) at a total volume of 50 μL on a Tecan F200 plate reader (San Jose, CA, USA).
Aggregations were performed in triplicate.
Disaggregation experiments were performed on labeled fibril samples prepared as described above in the absence of compound. A final concentration of 10 μM fibrils was added to each well for each disaggregation experiment and compound 6, nordihydroguaiaretic acid (NDGA), epigallocatechin gallate (EGCG) or DMSO (1%) was added just prior to measurement to the final concentrations detailed in Fig. S3 and total volumes of 50 μL. Samples were shaken at 149 rpm at room temperature with FP measurements taken every 150 s. EGCG and NDGA […]
Fig. S5 Impact of Compound 6 on αS Fibril Stability. Assessment of potential remodeling of 1% labeled αS fibrils by (light-green) 10 and (dark-green) 100 μM compound 6 compared to (red) 100 μM EGCG and (blue) 100 μM NDGA as a positive control. DMSO administration volume-matched to that used for (grey) 10 and (black) 100 μM compound administration was used as a negative control. […]

αS aggregation = αS aggregation (Homo sapiens, UniProt P37840); test: αS aggregation fluorescence polarization experiment; format: biochemical; settings: 10 and 100 μM compound, 100 μM αS monomer with 1% labeled αS
Protocol: as §11, §12
Aggregations were performed in triplicate. […]
Fig. S4 Impact of Compound 6 on αS Aggregation. Aggregation of αS in the presence of 1% labeled monomer along with (light-green) 10 and (dark-green) 100 μM compound 6 monitored by (a) fluorescence polarization (FP) and (b) Congo Red absorbance. Aggregation in the presence of compound was compared to aggregation in the presence of volume matched addition of DMSO for (grey) 10 and (black) 100 μM […]
10 and (black) 100 μM compound administration was used as a negative control. […]

Row | Structure (SMILES) | Binding in Site 2 radioligand competition screen (in words) [1] | IC50 [2] | IC50 [3] | further results
1 | O=C(COc1ccc(F)cc1)Nc1noc(-c2ccccc2)n1 [Compound 50] | bound more poorly than the corresponding isoxazole compound; also recorded: weak binders | – | – | –
2 | Cc1ccc(OCC(=O)Nc2cc(-c3ccccc3)no2)cc1C [Compound 52] | moderate to strong binding | 30.7 nM | > 1000 nM | –
3 | CC(Oc1ccc(F)cc1)C(=O)Nc1cc(-c2ccccc2)no1 (stereo not drawn) [Compound 23] | bind poorly | – | – | –
4 | Cc1ccc(OCC(=O)Nc2cc(-c3ccc(I)cc3)no2)cc1C [Compound 61] | – | – | – | Kd (αS fibrils [4]): 1 nM; Selectivity for αS fibrils over amyloid β (Aβ42 fibrils) (αS fibrils [4]; from saturation binding Kd values): ~5 fold
5 | O=C(O[C@@H]1Cc2c(O)cc(O)cc2O[C@@H]1c1cc(O)c(O)c(O)c1)c1cc(O)c(O)c(O)c1 [EGCG, epigallocatechin gallate, reference compound] | – | – | – | Effect on stability of αS fibrils (αS fibrils [5]): disrupted fibril stability
6 | O=C(COc1ccccc1)Nc1noc(-c2ccccc2)n1 [Compound 51] | bound more poorly than the corresponding isoxazole compound | – | – | –
7 | O=C(COc1ccc(F)cc1)Nc1cc(-c2ccccc2)n[nH]1 [Compound 55] | moderate affinity | – | – | –
8 | O=C(COc1ccc(F)cc1)Nc1cc(-c2ccccc2)no1 [Compound 25] | weak binders | – | – | –
9 | Cc1ccc(N2CCN(c3cnn(-c4ccccc4)c(=O)c3Cl)CC2)cc1C [Compound 2] | – | 490 nM | – | –
10 | COc1ccc(OCC(=O)Nc2noc(-c3ccccc3)n2)cc1 [Compound 48] | bound more poorly than the corresponding isoxazole compound | – | – | –
11 | Cc1ccc(OCC(=O)Nc2cc(-c3ccc(F)c(F)c3)no2)cc1C [Compound 40] | moderate to strong binding | 19.6 nM | > 1000 nM | –
12 | COc1ccc(OCC(=O)Nc2cc(-c3ccc(F)cc3)no2)cc1 [Compound 34] | moderate to strong binding | – | – | –
13 | CC(Cc1ccc(O)c(O)c1)C(C)Cc1ccc(O)c(O)c1 (stereo not drawn) [NDGA, nordihydroguaiaretic acid, reference compound] | – | – | – | Effect on stability of αS fibrils (αS fibrils [5]): disrupted fibril stability
14 | COc1ccc(OCC(=O)Nc2cc(-c3ccc(Br)cc3)no2)cc1 [Compound 31] | moderate to strong binding | 68.7 nM | 37 nM | –
15 | COc1ccccc1OCC(=O)Nc1cc(-c2ccccc2)no1 [Compound 27] | hinder binding | – | – | –
16 | Cc1ccc(OCC(=O)Nc2cc(-c3ccc(Br)cc3)no2)cc1C [Compound 28] | moderate to strong binding | – | 12.6 nM | –
17 | Cc1ccc(OCC(=O)Nc2cc(-c3ccc(F)cc3)no2)cc1C [Compound 6] | high affinity | 9.49 nM | 109 nM | Effect on rate of αS aggregation (αS aggregation): No significant effect; also recorded: did not show any significant effect; Effect on stability of αS fibrils (αS fibrils [5]): no apparent effect; also recorded: did not show any significant effect
18 | COc1ccc(OCC(=O)Nc2cc(-c3ccccc3)no2)cc1 [Compound 24] | moderate to strong binding | 95.1 nM | 557 nM | –
19 | COc1ccc(OCC(=O)Nc2cc(-c3ccc(F)c(F)c3)no2)cc1 [Compound 39] | moderate to strong binding | 95.7 nM | > 1000 nM | –
20 | COc1ccc(OCC(=O)Nc2cc(-c3ccc(C)cc3)no2)cc1 [Compound 19] | moderate to strong binding | – | – | –

Reference: paper PMC8047729, “Identification of a nanomolar affinity α-synuclein fibril imaging probe by ultra-high throughput in silico screening” (Chemical Science, 2020)
